Measurements taken from article PMC4724233 (European journal of medicinal chemistry, 2015).

Experiments:
[1] = biological target: T1, GST-hCAR-LBD (Homo sapiens, UniProt Q14994); assay: CAR-mediated fluorescent PGC1α coactivator recruitment/repression assay; conditions: ratio of IC50 values; for fold increase of IC50 (less potent) relative to lead chemical 11 / fold more potent than lead compound CINPA1 (11): comparator 11 (IC50 687 nM)
T1 sequence (Q14994 109-348 isoform Q14994-2 limits assumed): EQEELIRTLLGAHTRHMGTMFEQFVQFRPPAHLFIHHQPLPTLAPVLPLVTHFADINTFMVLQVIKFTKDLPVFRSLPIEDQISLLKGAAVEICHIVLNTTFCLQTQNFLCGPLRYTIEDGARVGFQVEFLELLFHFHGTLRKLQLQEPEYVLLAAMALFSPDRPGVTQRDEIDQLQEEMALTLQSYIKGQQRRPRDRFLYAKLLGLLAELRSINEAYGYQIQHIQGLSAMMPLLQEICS

[2] = system: CAR; conditions: only at very high concentrations, 20 or 40 μM; cited from earlier work
[3] = system: PXR; conditions: only at very high concentrations, 20 or 40 μM; cited from earlier work
[4] = system: PXR; conditions: cited from earlier work
[5] = system: hCAR; conditions: cultured human hepatocytes; cited from earlier work

SMILES | fold increase of IC50 (less potent) relative to lead chemical 11 [1] | fold more potent than lead compound CINPA1 (11) [1] | further results
CCOC(=O)Nc1ccc2c(c1)N(C(=O)CN1C(C)(C)CCCC1(C)C)c1ccccc1CC2 [Compound 26, Ethyl (5-(2-(2,2,6,6-tetramethylpiperidin-1-yl)acetyl)-10,11-dihydro-5H-dibenzo[b,f]azepin-3-yl)carbamate] | – | – | fold IC50 relative to chemical 25 ([1]; comparator 25): over 6 fold
CCOC(=O)Nc1ccc2c(c1)N(C(=O)COC(C)(C)C)c1ccccc1CC2 [Compound 35, Ethyl (5-(2-(tert-butoxy)acetyl)-10,11-dihydro-5H-dibenzo[b,f]azepin-3-yl)carbamate] | – | 9.7 fold | –
C=CCN=C=S [AITC, allyl isothiocyanate] | – | – | inhibitory effect against CAR [2]: inhibitory effects against both CAR and PXR; inhibitory effect against PXR [3]: inhibitory effects against both CAR and PXR
CC(C)OC(=O)Nc1ccc2c(c1)N(C(=O)CCN(C)C)c1ccccc1CC2 [Compound 20] | – | – | fold increase in potency compared to chemical 18 ([1]; comparator 18): about 3 fold
CCOC(=O)Nc1ccc2c(c1)N(C(=O)CN1CCN(C)CC1)c1ccccc1CC2 [Compound 13] | 56 fold | – | –
CCOC(=O)Nc1ccc2c(c1)N(C(=O)CNC(C)(C)C)c1ccccc1CC2 [Compound 16] | 5 fold | – | –
CCOC(=O)Nc1ccc2c(c1)N(C(=O)CN(CC)CC)c1ccccc1CC2 [Compound 11, ethyl (5-(diethylglycyl)-10,11-dihydro-5H-dibenzo[b,f]azepin-3-yl)carbamate] | – | – | PXR activation [4]: does not activate PXR
CCOC(=O)Nc1ccc2c(c1)N(C(=O)CN1CCCC1)c1ccccc1CC2 [Compound 24, Ethyl (5-(2-(pyrrolidin-1-yl)acetyl)-10,11-dihydro-5H-dibenzo[b,f]azepin-3-yl)carbamate] | more than 2 fold | – | –
CCOC(=O)Nc1ccc2c(c1)N(C(=O)CN1C(=O)C=CC1=O)c1ccccc1CC2 [Compound 28, Ethyl (5-(2-(2,5-dioxo-2,5-dihydro-1H-pyrrol-1-yl)acetyl)-10,11-dihydro-5H-dibenzo[b,f]azepin-3-yl)carbamate] | – | – | fold IC50 relative to chemical 24 ([1]; comparator 24, less active): 25 fold
CCOC(=O)Nc1ccc2c(c1)N(C(=O)Cn1ccnc1)c1ccccc1CC2 [Compound 30, Ethyl (5-(2-(1H-imidazol-1-yl)acetyl)-10,11-dihydro-5H-dibenzo[b,f]azepin-3-yl)carbamate] | – | – | fold IC50 relative to chemical 29 ([1]; comparator 29, loss of activity): 186 fold
CCCN(CCC)CC(=O)N1c2ccccc2CCc2ccc(NC(=O)OCC)cc21 [Compound 22, Ethyl (5-(dipropylglycyl)-10,11-dihydro-5H-dibenzo[b,f]azepin-3-yl)carbamate] | – | 3 fold | –
CCOC(=O)Nc1ccc2c(c1)N(C(=O)CN(C(C)C)C(C)C)c1ccccc1CC2 [Compound 23, Ethyl (5-(diisopropylglycyl)-10,11-dihydro-5H-dibenzo[b,f]azepin-3-yl)carbamate] | more than 4 fold | – | –
Cc1cccc(CN2CCN(C(c3ccccc3)c3ccc(Cl)cc3)CC2)c1 (stereo not shown) [Meclizine] | – | – | hCAR inverse agonist or antagonist effect [5]: failed to act as an effective hCAR inverse agonist or antagonist
CCOC(=O)Nc1ccc2c(c1)N(C(=O)CN1CCOCC1)c1ccccc1CC2 [Compound 12] | – | about 3 fold | –

The next lines start with results.

fold increase of IC50 (less potent) relative to lead chemical 11 [1] | fold more potent than lead compound CINPA1 (11) [1] | SMILES | further results
about 3.4 fold | – | CCN(CC)CC(=O)N1c2ccccc2CCc2ccc(Nc3nnc(C)o3)cc21 [Compound 44, 2-(Diethylamino)-1-(3-((5-methyl-1,3,4-oxadiazol-2-yl)amino)-10,11-dihydro-5H-dibenzo[b,f]azepin-5-yl)ethan-1-one] | –
– | about 59 fold | O=C(Nc1ccc2c(c1)N(C(=O)Cn1cccc1)c1ccccc1CC2)OC1CCCCC1 [Compound 72, Cyclohexyl (5-(2-(1H-pyrrol-1-yl)acetyl)-10,11-dihydro-5H-dibenzo[b,f]azepin-3-yl)carbamate] | –
3.5 fold | – | CCOC(=O)Nc1ccc2c(c1)N(C(=O)CCN(CC)CC)c1ccccc1CC2 [Compound 33, Ethyl (5-(3-(diethylamino)propanoyl)-10,11-dihydro-5H-dibenzo[b,f]azepin-3-yl)carbamate] | –
– | 19 fold | CCOC(=O)Nc1ccc2c(c1)N(C(=O)Cn1cccc1)c1ccccc1CC2 [Compound 29, Ethyl (5-(2-(1H-pyrrol-1-yl)acetyl)-10,11-dihydro-5H-dibenzo[b,f]azepin-3-yl)carbamate] | fold more potent than chemical 24 ([1]; comparator 24): 43 fold
3 fold | – | CCOC(=O)Nc1ccc2c(c1)N(C(=O)CNC(C)(C)CC)c1ccccc1CC2 [Compound 32, Ethyl (5-(tert-pentylglycyl)-10,11-dihydro-5H-dibenzo[b,f]azepin-3-yl)carbamate] | –
– | 32.8 fold | CC(C)OC(=O)Nc1ccc2c(c1)N(C(=O)Cn1cccc1)c1ccccc1CC2 [Compound 56, Isopropyl (5-(2-(1H-pyrrol-1-yl)acetyl)-10,11-dihydro-5H-dibenzo[b,f]azepin-3-yl)carbamate] | –
